Reference: article PMC7070685, “Efficient Biocatalytic Synthesis of Dihalogenated Purine Nucleoside Analogues Applying Thermodynamic Calculations” (Molecules, 2020)

What was measured:
[1] = system: HL-60 cells; assay: XTT cell proliferation assay, HL-60; assay type: cell-based; details: Homo sapiens; leukemia cell line HL-60, XTT assay after 24 h; read-out: IC50, inhibition of growth of HL-60 cells
Protocol: (§1) HEK293 cells were cultured in […] Dulbecco’s modified Eagle’s medium (Biowest) containing 10% fetal bovine serum, 2 mM glutamine, non-essential amino acids, 4.5 mg mL^−1 glucose, and the antibiotics penicillin and streptomycin. HL-60 cells were cultured in RPMI 1640 w/o L-Glutamine supplemented with 10% fetal bovine serum, 2 mM glutamine, and the antibiotics penicillin and streptomycin. Cells were grown at 37 °C in a humidified atmosphere with 5% CO2.
(§2) Cytotoxicity was measured by the XTT assay at 450 nm as described by the manufacturer (Roche Diagnostics, Basel, Switzerland). Phosphate-buffered saline was used as negative control. For HL-60 and HEK293 cells, 1.2 × 10^5 cells in growth media were transferred to each well of a 96-well flat-bottom plate. Subsequently, modified nucleosides were added in varying concentrations. XTT assay was performed after 24 h for HL-60 and HEK293 cells, as described previously. At least three replicates for each nucleoside concentration were performed. All experiments were conducted for a minimum of three independent experiments.

[2] = system: HEK293 cells; assay: XTT cell proliferation assay, control cell line HEK293; assay type: cell-based; details: control cell line HEK293, XTT assay after 24 h
Protocol: as §1, §2

- IC50 [1]: 220 nM
SMILES: Nc1nc(Cl)nc2c1ncn2[C@H]1C[C@H](O)[C@@H](CO)O1 [cladribine]
- inhibition of growth of the control cell line HEK293 [2]: No unspecific growth inhibition
